Assay results as given in patent publication US20050209339A1, “Methods for the treatment of sinusitis” (priority 2002, published 2005).

Tests used:
chronic rhinosinusitis = assay: double-blind placebo-controlled clinical trial in chronic rhinosinusitis; assay type: in vivo, human; details: 625 mg terbinafine base equivalent as hydrochloride orally once daily for 6 weeks, versus placebo, patients
Protocol: A prospective, double-blind, parallel-group, multi-center, placebo-controlled study comparing the safety and efficacy of 625 mg of terbinafine base equivalent as hydrochloride daily, or a molar equivalent in other acid addition salt or free base form, for 6 weeks, versus placebo in the treatment of chronic rhinosinusitis is performed. The study duration is a total of 18 weeks and consists of three periods: a) screening (3 weeks, from week −3 to −1); b) treatment (6 weeks, from baseline of treatment week to week +6); and c) follow-up assessment (9 weeks, from week +7 to +15).
Sixty patients, male and female, between the age of 18 and 65 years, are randomized to receive six weeks of terbinafine therapy or placebo.
Additional inclusion criteria for admission to the study is as follows: • Patients with signs and symptoms of chronic non-invasive rhinosinusitis (CRS) for at least 3 months prior to screening. […]

[1] = system: molds and dimorphic fungi, pathogenic yeasts of the genera Pityrosporum, Candida and Rhodotorula; details: many pathogenic yeasts (Pityrosporum, Candida, Rhodotorula); cited from earlier work
[2] = system: ergosterol biosynthesis (squalene epoxidase); details: blocks squalene epoxidase; cited from earlier work

CN(C/C=C/C#CC(C)(C)C)Cc1cccc2ccccc12 [Terbinafine]
efficacy relative to primary (CT total opacification score) and secondary variables (chronic rhinosinusitis): therapeutically effective regimen
activity in vitro [1]: active in vitro
inhibition of ergosterol biosynthesis [2]: potent inhibitor
